Source: the supplement of paper PMC8671470

Key:
Conditions in all cases: 72 h
HL-60 [1] = assay: area under dose-response curve (viability, 1 nM-10 uM) (fraction (0-1)); higher = more sensitive
Method in brief: (§1)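 A rescreen of the full library used HL-60 cells in RPMI 1640 with 10% FBS on 384-well plates, run in duplicate at five tenfold concentrations (1–10,000 nM). Each screen included DMSO or 100 nM of one of three metabolic inhibitors and ran 72 h at 37 °C, 5% CO2. CellTiter-Glo viability was scaled between DMSO and 10 μM proteasome-inhibitor wells. Any area under the curve comes from four-parameter log-logistic fits with drc and PharmacoGx.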

SHI-1 [2] = assay: cell viability (% survival relative to DMSO control, bortezomib = 0%); higher = less cytotoxic
Method in brief: (§2)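 Fifteen myeloid leukaemia cell lines (10 AML, 5 CML) were seeded at a density titrated to the linear growth range into 384-well plates pre-printed with compounds at 1, 10, 100, 1000 or 10000 nM in duplicate. Plates were incubated for 72 h at 37 °C with 5% CO2. Viability was then read by CellTiter-Glo luminescence. Each value is percent survival averaged over the duplicates, with vehicle set to 100% and a 10 µM positive control to 0%.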

KCL-22 [3] = assay: as above
Method in brief: as §2

MV4-11 [4] = assay: as above
Method in brief: as §2

Mono-Mac-6 [5] = assay: as above
Method in brief: as §2

ML-2 [6] = assay: as above
Method in brief: as §2

KG-1 [7] = assay: as above
Method in brief: as §2

LAMA-84 [8] = assay: as above
Method in brief: as §2

BV-173 [9] = assay: as above
Method in brief: as §2

HL-60 [10] = assay: as above
Method in brief: as §2

HEL [11] = assay: as above
Method in brief: as §2

K-562 [12] = assay: as above
Method in brief: as §2

HL-60 [13] = assay: cell viability (% survival relative to DMSO control); higher = less cytotoxic
Method in brief: as §1

SHI-1 [14] = system: SHI-1
Method in brief: (§3)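 Each of fifteen myeloid leukaemia cell lines was seeded in RPMI 1640 at a density titrated to its linear growth range. The cells were incubated for 72 h at 37 °C and 5% CO2 with compounds at five tenfold doses from 1 to 10,000 nM, in duplicate. After ATP luminescence was normalised to vehicle and to a positive control at 10 µM, four-parameter log-logistic curves were fitted. These curves gave the IC50.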

KCL-22 [15] = system: KCL-22
Method in brief: as §3

MV4-11 [16] = system: MV4-11
Method in brief: as §3

Mono-Mac-6 [17] = system: Mono-Mac-6
Method in brief: as §3

KU-812 = system: KU-812
Method in brief: as §3

ML-2 [18] = system: ML-2
Method in brief: as §3

KG-1 [19] = system: KG-1
Method in brief: as §3

MOLM-13 = system: MOLM-13
Method in brief: as §3

LAMA-84 [20] = system: LAMA-84
Method in brief: as §3

BV-173 [21] = system: BV-173
Method in brief: as §3

HL-60 [22] = system: HL-60
Method in brief: as §3

NOMO-1 = system: NOMO-1
Method in brief: as §3

THP-1 = system: THP-1
Method in brief: as §3

HEL [23] = system: HEL
Method in brief: as §3

K-562 [24] = system: K-562
Method in brief: as §3

OCCN(CCO)c1nc(N2CCCCC2)c2nc(N(CCO)CCO)nc(N3CCCCC3)c2n1 [Dipyridamole]
Conditions | area under dose-response curve, co-treatment: AZD3965 100 nM | area under dose-response curve, co-treatment: DMSO vehicle | area under dose-response curve, co-treatment: pictilisib 100 nM | cell viability, 1 nM [%] | cell viability, 10 nM [%] | cell viability, 100 nM [%] | cell viability, 1000 nM [%] | cell viability, 10000 nM [%]
BV-173 [9] | – | – | – | 90.4 | 98.2 | 92.4 | 78.6 | 38.8
HEL [11] | – | – | – | 87.6 | 101 | 102 | 105 | 77.7
HL-60 [1] | < 0.0301 | < 0.0301 | < 0.0301 | – | – | – | – | –
HL-60 [10] | – | – | – | 129 | 65.2 | 105 | 61.6 | 93.8
K-562 [12] | – | – | – | 108 | 89.5 | 105 | 85.6 | 67
KCL-22 [3] | – | – | – | 114 | 95.3 | 98.9 | 106 | 65
KG-1 [7] | – | – | – | 94.7 | 112 | 101 | 104 | 90.2
LAMA-84 [8] | – | – | – | 97.9 | 99.6 | 108 | 90.3 | 83.7
ML-2 [6] | – | – | – | 93.4 | 104 | 123 | 103 | 66.4
MV4-11 [4] | – | – | – | 95.8 | 95 | 101 | 94.4 | 43.5
Mono-Mac-6 [5] | – | – | – | 98 | 103 | 98.5 | 97.1 | 77.4
SHI-1 [2] | – | – | – | 104 | 113 | 110 | 92.2 | 80.9

cell viability [%], HL-60 [13]
Conditions | 0.001 µM | 0.01 µM | 0.1 µM | 1 µM | 10 µM
co-treatment: AZD3965 100 nM | 95.7 | 98.9 | 100.7 | 102 | 106
co-treatment: DMSO vehicle | 101 | 97.54 | 107 | 100 | 106
co-treatment: GSK2194069 100 nM | 94.2 | 94.44 | 106 | 82 | 64
co-treatment: pictilisib 100 nM | 90.6 | 101 | 105.3 | 99.7 | 97.4

Conditions | IC50 (cell viability) [µM]
BV-173 [21] | 3.55
HEL [23] | > 10
HL-60 [22] | > 10
K-562 [24] | > 10
KCL-22 [15] | > 10
KG-1 [19] | > 10
KU-812 | > 10
LAMA-84 [20] | > 10
ML-2 [18] | > 10
MOLM-13 | > 10
MV4-11 [16] | 8.82
Mono-Mac-6 [17] | > 10
NOMO-1 | > 10
SHI-1 [14] | > 10
THP-1 | > 10

Cc1cc(O)c2c(c1)C(=O)c1cc(O)cc(O)c1C2=O [Emodin]
Conditions | area under dose-response curve, co-treatment: AZD3965 100 nM | area under dose-response curve, co-treatment: DMSO vehicle | area under dose-response curve, co-treatment: GSK2194069 100 nM | area under dose-response curve, co-treatment: pictilisib 100 nM | cell viability, 1 nM [%] | cell viability, 10 nM [%] | cell viability, 100 nM [%] | cell viability, 1000 nM [%] | cell viability, 10000 nM [%]
BV-173 [9] | – | – | – | – | 88.8 | 111 | 99.8 | 74.6 | 89.8
HEL [11] | – | – | – | – | 105 | 114 | 98.5 | 89.8 | 115
HL-60 [1] | < 0.0301 | < 0.0301 | < 0.0301 | < 0.0301 | – | – | – | – | –
HL-60 [10] | – | – | – | – | 90.5 | 97.8 | 124 | 88.2 | 109
K-562 [12] | – | – | – | – | 109 | 94.2 | 102 | 102 | 112
KCL-22 [3] | – | – | – | – | 103 | 97.9 | 96.6 | 98.5 | 96
KG-1 [7] | – | – | – | – | 90.7 | 89.7 | 96.1 | 97.3 | 94.9
LAMA-84 [8] | – | – | – | – | 102 | 100 | 102 | 96.5 | 112
ML-2 [6] | – | – | – | – | 97.8 | 104 | 101 | 89.5 | 98.2
MV4-11 [4] | – | – | – | – | 92.8 | 85.6 | 93 | 99 | 100
Mono-Mac-6 [5] | – | – | – | – | 92.1 | 106 | 97.3 | 102 | 81.7
SHI-1 [2] | – | – | – | – | 88.6 | 97.8 | 98.3 | 94.5 | 93.5

cell viability [%], HL-60 [13]
Conditions | 0.001 µM | 0.01 µM | 0.1 µM | 1 µM | 10 µM
co-treatment: AZD3965 100 nM | 101 | 97.9 | 101 | 97.585 | 98.7
co-treatment: DMSO vehicle | 102 | 100 | 101 | 102.6 | 103.5
co-treatment: GSK2194069 100 nM | 92.5 | 76.2 | 94 | 74.7 | 96.7
co-treatment: pictilisib 100 nM | 96.6 | 107 | 97.4 | 89.4 | 97.6

Conditions | IC50 (cell viability) [µM]
BV-173 [21] | > 10
HEL [23] | > 10
HL-60 [22] | > 10
K-562 [24] | > 10
KCL-22 [15] | > 10
KG-1 [19] | > 10
KU-812 | > 10
LAMA-84 [20] | > 10
ML-2 [18] | > 10
MOLM-13 | > 10
MV4-11 [16] | > 10
Mono-Mac-6 [17] | > 10
NOMO-1 | > 10
SHI-1 [14] | > 10
THP-1 | > 10
